# Experimental data reported in US11696913B2, “Prolonged ectoparasite-controlling agent for animal” (MITSUI CHEMICALS AGRO, INC., priority 2017, dated 2023).
# Experiments:
# [1] = system: Amblyomma americanum; assay: In vitro contact test with hard ticks (Amblyomma americanum nymphs); details: read-out: acaricidal activity; for pest or weed control at 1 µg/cm2, 1 µg/cm2: dose 1 μg/cm^2, 48 h; for pest or weed control at 0.2 µg/cm2, 0.2 µg/cm2: dose 0.2 μg/cm^2, 48 h
# Description: (§1) In Vitro Contact Tests with Adult Hard Ticks
# (§2) In vitro contact tests with ticks were conducted with adult males and females of Rhipicephalus sanguineus, Ixodes ricinus, or Dermacentor variabilis, or nymphs of Amblyomma americanum.
# (§3) For the coating of the test vials, the test substance was dissolved and diluted in acetone p.a. to the desired concentration. The solution was then homogeneously applied to the inner wall and base of a glass vial by turning and rocking on an orbital shaker until complete evaporation of the solvent. For example, with a 900 ppm solution of test substance, an area-based dose of 5 μg/cm^2 was achieved.
# (§4) After the solvent was completely evaporated, 5-10 adult ticks were put in each coated test vial, which was then sealed with a perforated plastic lid and incubated in a horizontal position in the dark at room temperature and ambient humidity (Rhipicephalus sanguineus) or in a climate-controlled cabinet (Ixodes ricinus, Dermacentor variabilis, Amblyomma americanum [21° C., 85% rel. hum.]). Acaricidal activity against the respective tick species was determined after 48 h. For this, ticks were collected to the base of the test vial by gentle knocking, and test vials were then incubated on a hotplate at 45-50° C. for no longer than 5 min. Ticks which remained motionless on the base of the test vial or moved uncoordinated without deliberately climbing up to avoid the heat were considered dead or moribund, respectively.
# (§5) A substance was judged to have good acaricidal activity against the respective tick species when at least 80% of ticks were found dead or moribund at a dose of the substance of g/cm^2. An acaricidal activity of 100% means all ticks were dead or moribund. An acaricidal activity of 0% means none of the ticks was found dead or moribund.
# [2] = system: Rhipicephalus (Boophilus) microplus; assay: In vitro injection test with Rhipicephalus (Boophilus) microplus (BOOPMI Inj); details: 168 h, laid fertile eggs after 7 days, read-out: acaricidal activity; for pest or weed control at 0.0008 mg: dose 0.8 μg/animal injected; for pest or weed control at 0.00016 mg: dose 0.16 μg/animal injected; for pest or weed control at 32 ng: dose 0.032 μg/animal injected
# Description: In Vitro Injection Test with Rhipicephalus (Boophilus) Microplus (BOOPMI Inj)
# To produce an appropriate mixture for injection, the test substance was dissolved and diluted in dimethyl sulphoxide to the desired concentration. 1 μl of the test mixture was injected into the abdomen of each of 5 engorged adult female cattle ticks (Rhipicephalus (Boophilus) microplus). The ticks were transferred into petri dishes and maintained in a climate-controlled room [28° C., 85% rel. hum.].
# Acaricidal activity against cattle ticks was assessed after 7 days by assessment of laid fertile eggs. […] An acaricidal activity of 100% means that none of the ticks laid eggs or laid eggs were infertile; 0% means that the ticks laid eggs, and all the eggs were fertile.
# [3] = system: Ctenocephalides felis; assay: Ctenocephalides felis in-vitro feeding test with fleas (CTECFE oral); details: 48 hours, read-out: insecticidal feeding activity; for pest or weed control at 4 ppm: dose 4 ppm in citrated cattle blood; for pest or weed control at 0.8 ppm: dose 0.8 ppm in citrated cattle blood; for pest or weed control at 0.16 ppm: dose 0.16 ppm in citrated cattle blood
# Description: Ctenocephalides felis In-Vitro Feeding Test with Fleas (CTECFE Oral)
# To prepare a test blood mixture for feeding fleas, the test substance was dissolved in dimethyl sulphoxide and diluted with citrated cattle blood to the desired concentration.
# To assemble the test set-up, about 20 unfed adult male and female cat fleas
# (Ctenocephalides felis) were placed in a chamber which was closed at the top and bottom with gauze. A metal cylinder was sealed at one end with parafilm membrane, placed with the sealed base onto the chamber, and filled with the test blood mixture, which could be imbibed by the fleas through the parafilm membrane. The assembled test set-up was maintained at about 37° C. After 48 hours, the insecticidal feeding activity against fleas was determined. 100% means that all of the fleas were killed; 0% means that none of the fleas was killed.
# [4] = system: Ctenocephalides felis; assay: In vitro contact test with fleas; details: read-out: insecticidal activity; for pest or weed control at 0.2 µg/cm2, 0.2 µg/cm2: dose 0.2 μg/cm^2, dead or moribund fleas after 48 h; for pest or weed control at 1 µg/cm2, 1 µg/cm2: dose 1 μg/cm^2, dead or moribund fleas after 48 h
# Description: In Vitro Contact Tests with Fleas
# In vitro contact tests with fleas were conducted with adult male and female cat fleas (Ctenocephalides felis).
# as §3, with “To coat” for “For the coating of”, “tubes,” for “vials,”, “tube” for “vial”
# Upon complete evaporation of the solvent, 5-10 adult cat fleas (Ctenocephalides felis) were added to each coated tube, which was then sealed with a perforated plastic lid and incubated in a horizontal position at room temperature and ambient humidity. After 48 h, insecticidal activity against fleas was determined. For this, fleas were collected to the base of the tube by knocking the tube, and the tube was allowed to stand upright. Fleas which remained motionless at the base or moved in an uncoordinated manner were considered dead or moribund, respectively.
# A substance was judged to have good insecticidal activity against Ctenocephalides felis when at least 80% of the fleas were found dead or moribund at a dose of the substance of μg/cm^2. 100% insecticidal activity means that all the fleas were found dead or moribund. 0% insecticidal activity means that no fleas were found dead or moribund.
# [5] = system: Rhipicephalus sanguineus; assay: In vitro contact test with adult hard ticks (Rhipicephalus sanguineus); details: read-out: acaricidal activity; for pest or weed control at 0.2 µg/cm2, 0.2 µg/cm2: dose 0.2 μg/cm^2, 48 h; for pest or weed control at 1 µg/cm2, 1 µg/cm2: dose 1 μg/cm^2, 48 h; for pest or weed control at 0.04 µg/cm2, 0.04 µg/cm2: dose 0.04 μg/cm^2, 48 h
# Description: as §1, §2, §3, §4, §5
# [6] = system: Dermacentor variabilis; assay: In vitro contact test with adult hard ticks (Dermacentor variabilis); details: read-out: acaricidal activity; for pest or weed control at 1 µg/cm2, 1 µg/cm2: dose 1 μg/cm^2, 48 h
# Description: as §1, §2, §3, §4, §5
SMILES,"pest or weed control at 1 µg/cm2, 1 µg/cm2 [1] [%]",pest or weed control at 0.0008 mg [2] [%],pest or weed control at 4 ppm [3] [%],"pest or weed control at 0.2 µg/cm2, 0.2 µg/cm2 [4] [%]","pest or weed control at 1 µg/cm2, 1 µg/cm2 [4] [%]","pest or weed control at 1 µg/cm2, 1 µg/cm2 [5] [%]",pest or weed control at 0.00016 mg [2] [%],pest or weed control at 0.8 ppm [3] [%],also measured
O=C(Nc1cccc(C(=O)Nc2c(Br)cc(C(F)(C(F)(F)F)C(F)(F)F)cc2OC(F)(F)F)c1)c1ccc(C(F)(F)F)cc1 [Compound 1],90,100,–,–,–,–,–,–,–
O=C(Nc1cccc(C(=O)Nc2c(Br)cc(C(F)(C(F)(F)F)C(F)(F)F)cc2OC(F)(F)F)c1)c1ccc(Cl)cc1 [Compound 2],90,100,–,–,–,–,–,–,–
N#Cc1ccc(C(=O)Nc2cccc(C(=O)Nc3c(Br)cc(C(F)(C(F)(F)F)C(F)(F)F)cc3C(F)(F)F)c2)cc1 [Compound 3],90,100,95,95,95,90,–,–,"pest or weed control at 0.2 µg/cm2, 0.2 µg/cm2 [5]: 90%"
CN(C(=O)c1ccc(C#N)cc1)c1cccc(C(=O)Nc2c(Br)cc(C(F)(C(F)(F)F)C(F)(F)F)cc2C(F)(F)F)c1 [Compound 4],90,100,–,95,95,–,–,–,–
CN(C(=O)c1ccc([N+](=O)[O-])cc1)c1cccc(C(=O)Nc2c(Br)cc(C(F)(C(F)(F)F)C(F)(F)F)cc2C(F)(F)F)c1 [Compound 5],–,100,95,95,95,–,100,–,"pest or weed control at 1 µg/cm2, 1 µg/cm2 [6]: 90%"
CN(C(=O)c1ccc(C#N)nc1)c1cccc(C(=O)Nc2c(Br)cc(C(F)(C(F)(F)F)C(F)(F)F)cc2C(F)(F)F)c1 [Compound 6],–,100,95,95,95,–,–,95,–
CN(C(=O)c1ccc(S(C)(=O)=O)cc1)c1cccc(C(=O)Nc2c(Br)cc(C(F)(C(F)(F)F)C(F)(F)F)cc2C(F)(F)F)c1 [Compound 7],–,100,95,–,95,–,–,–,–
CN(C(=O)c1ccc(C#N)cc1)c1cc(C(=O)Nc2c(Br)cc(C(F)(C(F)(F)F)C(F)(F)F)cc2C(F)(F)F)ccc1F [Compound 8],–,–,95,95,95,–,–,95,–
CN(C(=O)c1ccc(C#N)cc1)c1cccc(C(=O)Nc2c(Br)cc(C(F)(C(F)(F)F)C(F)(F)F)cc2OC(F)(F)F)c1 [Compound 10],–,100,95,95,95,90,100,–,–
O=C(Nc1cccc(C(=O)Nc2c(Br)cc(C(F)(C(F)(F)F)C(F)(F)F)cc2OC(F)(F)F)c1)c1ccc([N+](=O)[O-])cc1 [Compound 11],90,100,95,95,95,90,100,95,"pest or weed control at 0.16 ppm [3]: 95%; pest or weed control at 0.2 µg/cm2, 0.2 µg/cm2 [1]: 90%; pest or weed control at 0.04 µg/cm2, 0.04 µg/cm2 [5]: 90%; pest or weed control at 0.2 µg/cm2, 0.2 µg/cm2 [5]: 90%"
CN(C(=O)c1ccc(C#N)cc1F)c1cccc(C(=O)Nc2c(Br)cc(C(F)(C(F)(F)F)C(F)(F)F)cc2C(F)(F)F)c1 [Compound 14],–,100,95,95,95,90,100,95,"pest or weed control at 0.16 ppm [3]: 95%; pest or weed control at 0.2 µg/cm2, 0.2 µg/cm2 [5]: 90%"
N#Cc1ccc(C(=O)Nc2cccc(C(=O)Nc3c(Br)cc(C(F)(C(F)(F)F)C(F)(F)F)cc3C(F)(F)F)c2)c(F)c1 [Compound 15],90,100,95,95,95,90,100,–,"pest or weed control at 0.2 µg/cm2, 0.2 µg/cm2 [1]: 90%; pest or weed control at 0.2 µg/cm2, 0.2 µg/cm2 [5]: 90%"
CN(C(=O)c1ccc(C#N)cc1)c1cccc(C(=O)Nc2c(Br)cc(C(F)(C(F)(F)F)C(F)(F)F)cc2C(F)(F)F)c1F [Compound 17],–,100,95,95,95,90,100,95,"pest or weed control at 0.0064 ppm ([3]; dose 0.0064 ppm in citrated cattle blood): 95%; pest or weed control at 0.032 ppm ([3]; dose 0.032 ppm in citrated cattle blood): 95%; pest or weed control at 0.16 ppm [3]: 95%; pest or weed control at 0.04 µg/cm2, 0.04 µg/cm2 ([4]; dose 0.04 μg/cm^2, dead or moribund fleas after 48 h): 95%; pest or weed control at 0.04 µg/cm2, 0.04 µg/cm2 [5]: 90%; pest or weed control at 0.2 µg/cm2, 0.2 µg/cm2 [5]: 90%; pest or weed control at 0.2 µg/cm2, 0.2 µg/cm2 ([6]; dose 0.2 μg/cm^2, 48 h): 90%; pest or weed control at 1 µg/cm2, 1 µg/cm2 [6]: 90%; pest or weed control at 32 ng [2]: 100%"
CN(C(=O)c1ccc(C#N)cc1Cl)c1cccc(C(=O)Nc2c(Br)cc(C(F)(C(F)(F)F)C(F)(F)F)cc2C(F)(F)F)c1 [Compound 18],–,–,95,–,–,–,–,95,–
CN(C(=O)c1ccc(C#N)cc1)c1cccc(C(=O)Nc2c(I)cc(C(F)(C(F)(F)F)C(F)(F)F)cc2C(F)(F)F)c1 [Compound 20],–,100,95,95,95,–,100,95,pest or weed control at 32 ng [2]: 100%
O=C(Nc1c(I)cc(C(F)(C(F)(F)F)C(F)(F)F)cc1C(F)(F)F)c1cccc(NC(=O)c2ccc(Cl)cc2Cl)c1 [Compound 32],–,100,95,–,–,–,–,–,–
CS(=O)(=O)c1ccc(C(=O)Nc2cccc(C(=O)Nc3c(I)cc(C(F)(C(F)(F)F)C(F)(F)F)cc3C(F)(F)F)c2)c(Cl)c1 [Compound 40],–,100,95,–,–,–,–,95,–
O=C(Nc1c(I)cc(C(F)(C(F)(F)F)C(F)(F)F)cc1C(F)(F)F)c1cccc(NC(=O)c2ccc(Cl)cc2Br)c1 [Compound 42],–,100,95,–,–,–,100,95,–
